Several values for one entry are separate records, joined by “and”; a condition that tells them apart may be missing. Equal values may be shown once. Residues, ends and D or L forms follow the SMILES beside them. Where only a bound is given, the exact number is not on record here.

These results are taken from patent US20060234942A1, “Use of at least one $g(a)62 casein peptide with angiotensin i converting enzyme inhibiting activity for preparing medicines, food products and food complements” (priority 2002, published 2006).

Test [1] deals with angiotensin I converting enzyme (ACE) (Homo sapiens, UniProt P12821). Briefly: biochemical. The following applies: for IC50: IC50 (μM), synthetic peptides, tested in triplicate, deduced from linearized inhibition curve; for inhibition at 50 µM: primary amine or captopril concentration equal to 50 μM, chromatographic peaks collected from trypsic hydrolysate of αS2 casein, tested twice.

Another test concerns bacteria. To be noted: Zucht et al. (10); Recio and Visser (11); cited from earlier work.
The target in test [2] is angiotensin I converting enzyme (Homo sapiens, UniProt P12821). The following applies: Maeno et al. (13); read-out: IC50, quantity of peptide needed for inhibiting 50% of the enzyme activity; cited from earlier work.
In test [3] the test system is spontaneously hypertensive rats. To be noted: 6 hours after oral administration of 1 mg synthesized peptide per kg, Maeno et al. (13); cited from earlier work.

Chain of angiotensin I converting enzyme (ACE) (P12821 30-1306, species assumed): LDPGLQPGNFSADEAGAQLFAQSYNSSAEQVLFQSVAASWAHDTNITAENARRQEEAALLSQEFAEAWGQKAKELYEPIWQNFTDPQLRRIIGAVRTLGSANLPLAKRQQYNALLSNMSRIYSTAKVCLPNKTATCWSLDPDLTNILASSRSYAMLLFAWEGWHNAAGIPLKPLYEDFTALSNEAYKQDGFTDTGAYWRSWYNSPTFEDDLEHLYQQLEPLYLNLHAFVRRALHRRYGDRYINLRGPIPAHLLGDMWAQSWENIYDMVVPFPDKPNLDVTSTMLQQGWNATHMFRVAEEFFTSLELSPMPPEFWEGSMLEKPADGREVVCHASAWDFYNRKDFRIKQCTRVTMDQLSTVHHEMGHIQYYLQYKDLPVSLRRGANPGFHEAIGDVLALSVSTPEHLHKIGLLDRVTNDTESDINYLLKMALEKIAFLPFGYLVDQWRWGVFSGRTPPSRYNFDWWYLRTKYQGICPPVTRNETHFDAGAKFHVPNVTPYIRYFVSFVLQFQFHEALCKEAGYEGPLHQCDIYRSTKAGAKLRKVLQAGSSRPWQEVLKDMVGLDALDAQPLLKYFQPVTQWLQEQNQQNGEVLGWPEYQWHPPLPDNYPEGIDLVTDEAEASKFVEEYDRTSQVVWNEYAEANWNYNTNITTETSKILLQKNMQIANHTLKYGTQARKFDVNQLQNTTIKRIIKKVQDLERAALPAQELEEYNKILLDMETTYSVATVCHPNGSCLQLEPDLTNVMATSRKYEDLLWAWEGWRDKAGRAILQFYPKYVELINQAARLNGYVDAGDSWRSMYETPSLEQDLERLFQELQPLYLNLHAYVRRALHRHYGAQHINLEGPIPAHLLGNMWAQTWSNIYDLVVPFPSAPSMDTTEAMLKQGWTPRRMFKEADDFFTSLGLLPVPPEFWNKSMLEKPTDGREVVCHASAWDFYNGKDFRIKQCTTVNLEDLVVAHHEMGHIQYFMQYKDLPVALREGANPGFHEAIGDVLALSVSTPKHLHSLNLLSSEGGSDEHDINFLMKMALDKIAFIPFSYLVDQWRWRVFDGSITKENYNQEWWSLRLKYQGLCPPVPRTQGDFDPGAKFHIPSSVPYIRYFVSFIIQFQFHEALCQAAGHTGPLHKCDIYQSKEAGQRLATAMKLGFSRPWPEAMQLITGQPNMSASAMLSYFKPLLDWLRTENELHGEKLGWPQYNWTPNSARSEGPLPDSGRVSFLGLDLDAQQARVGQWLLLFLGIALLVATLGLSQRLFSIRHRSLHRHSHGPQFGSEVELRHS
Chain of angiotensin I converting enzyme (P12821 30-1306): as the sequence (P12821 30-1306, species assumed) above

As a reminder, the IC50 is the midpoint of a concentration-inhibition curve. As for `CC[C@H](C)[C@H](NC(=O)[C@H](C)NC(=O)[C@H](CCSC)NC(=O)[C@@H](N)CC(N)=O)C(=O)N[C@@H](CC(N)=O)C(=O)N1CCC[C@H]1C(=O)O` [CNαS2-(f25-30), Asn-Met-Ala-Ile-Asn-Pro] (H-NMAINP-OH), the IC50 in test [1] is less than 60 µM. As usually defined, the inhibition is the relative decrease from the control value, in per cent. High values mean a response far below the control, low ones a response near the control. In test [1], `CC[C@H](C)[C@H](NC(=O)[C@H](C)NC(=O)[C@H](CCSC)NC(=O)[C@@H](N)CC(N)=O)C(=O)N[C@@H](CC(N)=O)C(=O)N1CCC[C@H]1C(=O)N[C@@H](CO)C(=O)N[C@@H](CCCCN)C(=O)O` [CNαS2-(f25-32)] (H-NMAINPSK-OH; N-terminus and C-terminus assumed) had a half-maximal inhibitory concentration (IC50) of less than 60 µM and an inhibition at 50 µM of 42.5%.

Take `CC[C@H](C)[C@H](NC(=O)[C@H](CCC(=O)O)NC(=O)[C@H](CC(N)=O)NC(=O)[C@H](CC(C)C)NC(=O)[C@H](C)N)C(=O)N[C@@H](CC(N)=O)C(=O)N[C@@H](CCC(N)=O)C(=O)N[C@@H](Cc1ccccc1)C(=O)N[C@@H](Cc1ccc(O)cc1)C(=O)O` [CNαS2-(f81-89)] (H-ALNEINQFY-OH; N-terminus and C-terminus assumed): the inhibition at 50 µM in test [1] came to 32.2%. Same read-out and setting: the result for `CC[C@H](C)[C@H](NC(=O)[C@H](CCC(=O)O)NC(=O)[C@H](CC(N)=O)NC(=O)[C@H](CC(C)C)NC(=O)[C@H](C)N)C(=O)N[C@@H](CC(N)=O)C(=O)N[C@@H](CCC(N)=O)C(=O)N[C@@H](Cc1ccccc1)C(=O)N[C@@H](Cc1ccc(O)cc1)C(=O)N[C@@H](CCC(N)=O)C(=O)N[C@@H](CCCCN)C(=O)O` [CNαS2-(f81-91)] (H-ALNEINQFYQK-OH; N-terminus and C-terminus assumed) reads 27.2%. In the case of `CC(C)C[C@H](NC(=O)[C@H](Cc1ccc(O)cc1)NC(=O)[C@H](CCC(N)=O)NC(=O)[C@@H]1CCCN1C(=O)[C@@H](N)Cc1ccccc1)C(=O)N[C@@H](CCC(N)=O)C(=O)N[C@@H](Cc1ccc(O)cc1)C(=O)O` [CNαS2-(f92-98), Phe-Pro-Gln-Tyr-Leu-Gln-Tyr] (H-FPQYLQY-OH; N-terminus and C-terminus assumed), in test [1], the IC50 was less than 60 µM and the inhibition at 50 µM is more than 70%. In the case of `CC(C)C[C@H](NC(=O)[C@H](C)NC(=O)[C@@H](N)Cc1ccccc1)C(=O)N1CCC[C@H]1C(=O)O` [CNαS2-(f174-177), Phe-Ala-Leu-Pro] (H-FALP-OH), in test [1], the IC50 was less than 60 µM. Consider `CC(C)C[C@H](NC(=O)[C@H](C)NC(=O)[C@@H](N)Cc1ccccc1)C(=O)N1CCC[C@H]1C(=O)N[C@@H](CCC(N)=O)C(=O)N[C@@H](Cc1ccc(O)cc1)C(=O)O` [CNαS2-(f174-179), Phe-Ala-Leu-Pro-Gln-Tyr] (H-FALPQY-OH; N-terminus and C-terminus assumed), for which, in test [1], the IC50 was < 60 µM and 4.3 µM; the inhibition at 50 µM is more than 70%. As for `CC(C)C[C@H](NC(=O)[C@H](Cc1ccc(O)cc1)NC(=O)[C@H](CCC(N)=O)NC(=O)[C@@H]1CCCN1C(=O)[C@H](CC(C)C)NC(=O)[C@H](C)NC(=O)[C@@H](N)Cc1ccccc1)C(=O)N[C@@H](CCCCN)C(=O)O` [CNαS2-(f174-181)] (H-FALPQYLK-OH; N-terminus and C-terminus assumed), in test [1], the IC50 is < 60 µM and 4.3 µM; the inhibition at 50 µM is more than 70%. In test [1], `CC(C)[C@H](NC(=O)[C@@H](N)[C@@H](C)O)C(=O)N[C@@H](Cc1ccc(O)cc1)C(=O)O` [CNαS2-(f182-184), Thr-Val-Tyr] (H-Thr-Val-Tyr-OH; N-terminus and C-terminus assumed) showed an IC50 of less than 60 µM and an inhibition at 50 µM of more than 70%. Consider “CNαS2-(f164-179): αS2 casein peptide with antibacterial activity, Recio and Visser (11) (LKKISQRYQKFALPQY; UniProt P02663 179-194, looked up, fragment)”, for which, in the test on bacteria, the antibacterial activity entry is “antibacterial activity”. “CNαS2-(f165-203): αS2 casein peptide with antibacterial activity, Zucht et al. (10) (KKISQRYQKFALPQYLKTVYQHQKAMKPWIQPKTKVIPY; UniProt P02663 180-218, looked up, fragment)”: in the test on bacteria, the antibacterial activity result is reported as “antibacterial activity”. Take “CNαS2-(f189-193): αS2 casein peptide 189-193, ACE inhibitor reported by Maeno et al. (13) (AMKPW; UniProt P02663 204-208, looked up, fragment)”: the IC50 in test [2] is 580 µM. The “antihypertensive effect in vivo” value in test [3] is recorded as “do not present any significant antihypertensive effect”. “CNαS2-(f190-197): αS2 casein peptide 190-197, ACE inhibitor reported by Maeno et al. (13) (MKPWIQPK; UniProt P02663 205-212, looked up, fragment)”: the IC50 in test [2] is 300 µM. Further, the “antihypertensive effect in vivo” value in test [3] is “do not present any significant antihypertensive effect”. As for “CNαS2-(f198-202): αS2 casein peptide 198-202, ACE inhibitor reported by Maeno et al. (13) (TKVIP; UniProt P02663 213-217, looked up, fragment)”, the IC50 in test [2] was 400 µM. In addition, the “antihypertensive effect in vivo” value in test [3] was “do not present any significant antihypertensive effect”.
